Assay results taken from patent US7531320B2, “Modulation of β-catenin/TCF-activated transcription” (priority 2003, dated 2009).

Key:
β-catenin/CBP complex = biological target: T1, β-catenin/CBP complex (Homo sapiens, UniProt Q92793); experiment: Co-immunoprecipitation of β-catenin with CBP in SW480 cells; format: cell-based
T1 construct: endogenous in cells; host or cells: SW480
Experimental: FIG. 3. COMPOUND 1 disrupts the β-catenin/CBP complex but not the p300/β-catenin complex. • A. Full-length Xenopus laevis β-catenin (1.1, 2.2, and 3.3 μg) or murine CBP (0.14, 0.28, 0.55, 1.1, and 2.2 μg) plasmids were cotransfected in SW480 cells along with the β-catenin/TCF (1.1 μg) reporter gene construct. Empty pcDNA3 vector was used to equalize the amount of DNA used in each reaction. Dual luciferase assays were performed 24 hours post COMPOUND 1 treatment. All experiments were performed in duplicate and values plotted as means +/−standard deviation. • B. COMPOUND 1 competes with β-catenin for CBP. SW480 cells were treated with 5 or 10 μM of COMPOUND 1 or control (0.5% DMSO). 24 hours post treatment, lysates were incubated with beads coated with either control the antibody, or anti-CBP, or anti-p300 antibodies. Co-immunoprecipitated proteins were subjected to gel electrophoresis and immunoblotting using anti-β-catenin antibodies. The arrows point to the immunoprecipitated β-catenin (doublets). • C. CBP (1-111) is the minimal region of interaction with β-catenin. SW480 cells transfected with a CBP deletion series were subjected to immunoprecipitation using anti-β-catenin antibodies coated on Protein A-agarose beads. The immune complexes were washed and subjected to gel electrophoresis followed by immunoblotting using anti-His antibodies. […]

[1] = tested on: caspase-3/7 in SW480 cells; experiment: Caspase-3/7 activity assay, SW480 cells; format: cell-based, human; details: 25 μM, 24 hours, compared to CCD18Co cells
Experimental: FIG. 6. • A. COMPOUND 1 arrests cells in G1. FACS analysis was performed on SW480 (lower panel) and HCT116 (upper panel) cells treated for 24 hours with either COMPOUND 1 (25 μM) (right) or control (0.5% DMSO (left). 5.5×10^6 cells were fixed and stained with propidium iodide (PI). G0/G1, S, and G2/M are indicated by arrows. • B. COMPOUND 1 selectively activates caspases in colon carcinoma cell lines. SW480 and HCT116 (left graph) cells (10^5) along with the normal colonocytes, CCD18Co (right graph) were treated with either control (0.5% DMSO) or COMPOUND 1 (25 μM). 24 hours post treatment, cells were lysed and the caspase-3/7 enzymatic activities were measured. Relative fluorescence units (RFU) were calculated by subtracting the unit values of the blank (control, without cells) from the treated samples (COMPOUND 1 or control) and plotted.
SW480, HCT116, and CCD18Co cells were plated at 10^5 cells per well (96-well plates) for 24 hours prior to treatment. 25 μM of COMPOUND 1 or control (0.5% DMSO) was added to each well. 24 hours post treatment, cells were lysed and caspase activity was measured using a caspase-3/7 activity kit (Apo-One Homogeneous caspase-3/7 assay, #G77905, Promega). Relative fluorescence units (RFU) were obtained by subtracting the unit values of the blank (control, without cells) from the experimental measured values. […]

T1 sequence (Q92793 whole entry, one chain of several): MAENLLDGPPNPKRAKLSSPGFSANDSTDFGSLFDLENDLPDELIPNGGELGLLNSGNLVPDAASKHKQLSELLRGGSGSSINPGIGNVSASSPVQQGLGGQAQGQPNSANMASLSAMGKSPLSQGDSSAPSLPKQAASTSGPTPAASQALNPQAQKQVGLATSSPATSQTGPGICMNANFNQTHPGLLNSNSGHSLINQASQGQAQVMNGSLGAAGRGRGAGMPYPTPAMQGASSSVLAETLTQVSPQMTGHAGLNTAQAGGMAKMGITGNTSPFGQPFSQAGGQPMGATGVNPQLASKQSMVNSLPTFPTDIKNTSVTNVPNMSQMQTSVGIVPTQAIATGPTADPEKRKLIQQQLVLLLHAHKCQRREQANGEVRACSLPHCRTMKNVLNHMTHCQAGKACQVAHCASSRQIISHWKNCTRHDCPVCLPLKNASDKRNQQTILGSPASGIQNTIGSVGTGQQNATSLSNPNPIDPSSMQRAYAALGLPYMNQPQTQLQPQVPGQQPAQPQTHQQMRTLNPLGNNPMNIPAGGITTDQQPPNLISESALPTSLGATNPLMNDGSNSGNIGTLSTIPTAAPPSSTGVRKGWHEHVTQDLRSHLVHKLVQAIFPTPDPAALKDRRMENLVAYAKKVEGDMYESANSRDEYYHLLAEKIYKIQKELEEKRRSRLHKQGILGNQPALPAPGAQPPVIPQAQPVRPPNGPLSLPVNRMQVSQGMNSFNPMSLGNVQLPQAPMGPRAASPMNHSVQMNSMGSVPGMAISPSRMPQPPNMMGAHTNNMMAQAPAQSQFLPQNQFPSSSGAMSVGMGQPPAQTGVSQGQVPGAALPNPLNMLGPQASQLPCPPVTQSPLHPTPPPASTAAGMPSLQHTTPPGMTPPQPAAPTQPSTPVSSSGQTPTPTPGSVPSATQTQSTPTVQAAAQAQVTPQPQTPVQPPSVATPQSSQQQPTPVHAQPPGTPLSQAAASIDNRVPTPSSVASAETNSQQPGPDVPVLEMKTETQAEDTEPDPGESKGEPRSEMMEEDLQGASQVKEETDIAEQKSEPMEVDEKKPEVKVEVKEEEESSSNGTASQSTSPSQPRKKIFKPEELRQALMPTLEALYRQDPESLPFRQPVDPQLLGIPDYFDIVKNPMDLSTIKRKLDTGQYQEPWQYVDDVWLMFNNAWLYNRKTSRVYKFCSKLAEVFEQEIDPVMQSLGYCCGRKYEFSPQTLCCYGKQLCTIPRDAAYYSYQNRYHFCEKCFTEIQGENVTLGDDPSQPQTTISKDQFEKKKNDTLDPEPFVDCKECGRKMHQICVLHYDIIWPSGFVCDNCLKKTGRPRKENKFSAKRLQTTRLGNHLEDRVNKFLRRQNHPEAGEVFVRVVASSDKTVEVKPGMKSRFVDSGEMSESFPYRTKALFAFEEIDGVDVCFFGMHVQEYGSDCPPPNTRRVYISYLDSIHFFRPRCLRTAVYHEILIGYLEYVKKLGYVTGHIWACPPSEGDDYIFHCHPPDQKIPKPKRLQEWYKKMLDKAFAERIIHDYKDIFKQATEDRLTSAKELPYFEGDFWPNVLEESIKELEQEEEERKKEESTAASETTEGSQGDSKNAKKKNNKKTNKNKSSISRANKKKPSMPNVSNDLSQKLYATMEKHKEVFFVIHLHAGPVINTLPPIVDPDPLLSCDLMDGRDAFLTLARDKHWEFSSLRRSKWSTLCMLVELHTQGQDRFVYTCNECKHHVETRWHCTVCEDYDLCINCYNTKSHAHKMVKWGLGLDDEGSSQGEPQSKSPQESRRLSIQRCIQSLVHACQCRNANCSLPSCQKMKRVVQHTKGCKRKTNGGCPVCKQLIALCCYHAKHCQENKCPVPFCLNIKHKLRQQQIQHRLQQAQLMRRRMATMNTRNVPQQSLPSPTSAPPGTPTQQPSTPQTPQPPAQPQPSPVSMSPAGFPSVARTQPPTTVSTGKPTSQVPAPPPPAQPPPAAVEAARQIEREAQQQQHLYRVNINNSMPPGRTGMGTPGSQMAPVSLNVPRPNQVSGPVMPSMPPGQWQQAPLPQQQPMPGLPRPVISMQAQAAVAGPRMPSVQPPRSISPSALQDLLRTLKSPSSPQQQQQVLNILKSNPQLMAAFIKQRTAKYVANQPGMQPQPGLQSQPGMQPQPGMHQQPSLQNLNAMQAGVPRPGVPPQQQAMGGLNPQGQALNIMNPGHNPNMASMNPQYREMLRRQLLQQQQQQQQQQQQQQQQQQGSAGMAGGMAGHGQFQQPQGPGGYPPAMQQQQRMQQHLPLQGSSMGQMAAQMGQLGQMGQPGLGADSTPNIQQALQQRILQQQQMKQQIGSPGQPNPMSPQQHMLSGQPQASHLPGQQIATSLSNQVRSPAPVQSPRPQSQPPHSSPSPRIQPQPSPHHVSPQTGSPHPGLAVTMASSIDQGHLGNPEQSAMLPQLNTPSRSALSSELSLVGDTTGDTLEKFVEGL

In the case of `O=C1C(Cc2ccc(O)cc2)N2C(=O)CCN(C(=O)NCc3ccccc3)C2CN1Cc1cccc2ccccc12` (stereo not drawn) [COMPOUND 1], the “CBP fragments binding to immunoprecipitated β-catenin in presence of excess COMPOUND 1” value (β-catenin/CBP complex; CBP (1-111), (1-211), (1-351), 50 μM COMPOUND 1) is reported as “dramatically competed away”, the “Immunoprecipitation of β-catenin with CBP” value (β-catenin/CBP complex; SW480 cells, 5 or 10 μM, 24 hours, concentration dependent) is reported as “inhibited” and the Caspase-3/7 activity [1] is reported as “specifically and significantly activated”.
